Measured values reported in US20070093520A1, “Method of treatment of diarrhea-predominant irritable bowel syndrome in a subject” (priority 2005, published 2007).

Tested on: diarrhea-predominant IBS subjects
Experiment: 3007 Study: open-label 52-week safety study, adverse events and withdrawals
Settings: C/C group

Cc1nccn1C[C@H]1CCc2c(c3cccc4c3n2CCC4)C1=O [cilansetron, (R)-(−)-4,5,6,8,9,10-hexahydro-10-[(2-methyl-1H-imidazol-1-yl)methyl]-11H-pyrido-[3,2,1-jk]-carbazol-11-one]
1 (<1%) n (%): TEAE: Acne NOS | TEAE: Acnes | TEAE: Acquired Hypothyroidism | TEAE: Adenomyosis* | TEAE: Allergic Conditions NEC | TEAE: Allergies to Foods, Food Additives, Drugs and Other Chemicals | TEAE: Amenorrhoea NOS* | TEAE: Anorexia | TEAE: Appetite Disorders | TEAE: Arrhythmia NOS | TEAE: Asthma Aggravated | TEAE: Asthma NOS | TEAE: Atrial Fibrillation | TEAE: Atrioventricular Block First Degree | TEAE: Bone Neoplasm Malignant | TEAE: Bone Neoplasms Malignant (Excl Sarcomas) | TEAE: Breast Disorders NEC* | TEAE: Breast Mass NOS* | TEAE: Breath Sounds Decreased | TEAE: Bruising, Ecchymosis and Purpura | TEAE: Bundle Branch Block Right | TEAE: Calculus Ureteric | TEAE: Cataract Unilateral | TEAE: Cataracts (Excl Congenital) | TEAE: Chest Tightness | TEAE: Conjunctivitis | TEAE: Conjunctivitis Allergic | TEAE: Contusion | TEAE: Cyst NOS | TEAE: Dacryostenosis Acquired | TEAE: Deafness NOS | TEAE: Dehydration | TEAE: Dermal and Epidermal Conditions NEC | TEAE: Dermatitis Contact | TEAE: Diabetes Mellitus Aggravated | TEAE: Diabetes Mellitus Non-Insulin-Dependent | TEAE: Drug Hypersensitivity | TEAE: Dysfunctional Uterine Bleeding* | TEAE: Dysuria | TEAE: Ear Disorders NEC | TEAE: Ear Pain | TEAE: Eczema | TEAE: Erythema | TEAE: Erythemas | TEAE: Fatigue Aggravated | TEAE: Fluid in Middle Ear | TEAE: Flushing | TEAE: Goitre | TEAE: Haematoma NOS | TEAE: Hearing Losses | TEAE: Hepatitis NOS | TEAE: Hepatobiliary Signs and Symptoms | TEAE: Hepatocellular Damage and Hepatitis NEC | TEAE: Hepatosplenomegaly NOS | TEAE: Hernia Repair NOS | TEAE: Hernia Repairs | TEAE: Hot Flushes NOS | TEAE: Hyperlipidaemia NOS | TEAE: Hyperlipidaemias NEC | TEAE: Hypersensitivity NOS | TEAE: Hypertension Aggravated | TEAE: Inner Ear Disorders NEC | TEAE: Inner Ear Signs and Symptoms | TEAE: Insomnia Exacerbated | TEAE: Intermenstrual Bleeding*
0 n (%): TEAE: Abdominal Therapeutic Procedures NEC | TEAE: Abdominoplasty | TEAE: Abnormal Chest Sounds NOS | TEAE: Acrochordons | TEAE: Age Related Issues | TEAE: Allergy to Insect Sting | TEAE: Alopecia | TEAE: Alopecias | TEAE: Anaemia NOS | TEAE: Anaemias NEC | TEAE: Apocrine and Eccrine Gland Disorders | TEAE: Behaviour and Socialisation Disturbances | TEAE: Benign Ovarian Tumour* | TEAE: Biliary Tract Disorder NOS | TEAE: Binocular Eye Movement Disorder NOS | TEAE: Bladder Disorders NEC | TEAE: Bladder Infections and Inflammations | TEAE: Bladder Prolapse | TEAE: Bradyarrhythmia | TEAE: Breast Calcifications* | TEAE: Breast Cancer NOS* | TEAE: Breast Disorder NOS* | TEAE: Breast and Nipple Neoplasms Malignant* | TEAE: Cardiac Fibrillation NOS | TEAE: Cardiac Flutter | TEAE: Chest Discomfort | TEAE: Congenital, Familial and Genetic Disorders | TEAE: Cystitis Interstitial | TEAE: Dermatitis Allergic | TEAE: Dermatitis Ascribed to Specific Agent | TEAE: Dermatitis Medicamentosa | TEAE: Dermatitis NOS | TEAE: Dermographism | TEAE: Dyshidrosis | TEAE: Fibroma NOS | TEAE: Fluid Intake Increased | TEAE: Food Allergy | TEAE: Gilbert's Syndrome | TEAE: Glucose Tolerance Impaired | TEAE: Glycosuria | TEAE: Hallucination NOS | TEAE: Hallucination, Auditory | TEAE: Hand Fracture | TEAE: Hernia NOS | TEAE: Hernias NEC | TEAE: Hyperglycaemia NOS | TEAE: Hyperglycaemic Conditions NEC | TEAE: Hyperkeratoses | TEAE: Hyperkeratosis | TEAE: Hypotension NOS | TEAE: Inborn Errors of Bilirubin Metabolism | TEAE: Ingrowing Nail | TEAE: Irritability
10 (4%) n (%): TEAE: Cardiac Disorders
5 (2%) n (%): TEAE: Anxiety Symptoms | TEAE: Cough | TEAE: Immune System Disorders | TEAE: Insomnia
2 (1%) n (%): TEAE: Endometriosis*
23 (9%) n (%): TEAE: General Disorders and Administration Site Conditions
3 (1%) n (%): TEAE: Angina Pectoris | TEAE: Anxiety | TEAE: Blood and Lymphatic System Disorders | TEAE: Bronchospasm and Obstruction | TEAE: Calculus Renal NOS | TEAE: Chest Pain | TEAE: Depression Aggravated | TEAE: Elevated Cholesterol | TEAE: Hypercholesterolaemia | TEAE: Influenza Like Illness
4 (2%) n (%): TEAE: Atopic Disorders | TEAE: Depression | TEAE: Haematuria | TEAE: Hepatobiliary Disorders | TEAE: Ischaemic Coronary Artery Disorders
8 (3%) n (%): TEAE: Asthenic Conditions | TEAE: Eye Disorders
2 (<1%) n (%): TEAE: Anxiety Aggravated | TEAE: Basal Cell Carcinoma | TEAE: Breathing Abnormalities | TEAE: Cardiac Conduction Disorders | TEAE: Cardiac Signs and Symptoms NEC | TEAE: Cerumen Impaction | TEAE: Cholecystitis and Cholelithiasis | TEAE: Cholelithiasis | TEAE: Conjunctival Infections, Irritations and Inflammations | TEAE: Dermatitis and Eczema | TEAE: Diabetes Mellitus (Incl Subtypes) | TEAE: Dry Eye NOS | TEAE: Dyspnoea NOS | TEAE: Endocrine Disorders | TEAE: External Ear Disorders NEC | TEAE: Fall | TEAE: Febrile Disorders | TEAE: Gout | TEAE: Inner Ear Infections and Inflammations
7 (3%) n (%): TEAE: Depressive Disorders | TEAE: Fatigue | TEAE: Hypertension NOS
6 (2%) n (%): TEAE: Bladder and Urethral Symptoms | TEAE: Coughing and Associated Symptoms | TEAE: Disturbances in Initiating and Maintaining Sleep | TEAE: Ear and Labyrinth Disorders | TEAE: General Signs and Symptoms NEC
